The values below come from US20070179060A1, “6-(Poly-substituted aryl)-4-aminopicolinates and their use as herbicides” (priority 2006, published 2007).

Data set [1] concerns lambsquarter (Chenopodium album). The experiment in a line: Postemergence herbicidal activity. Format: in vivo. The note with it: post-emergent, 140 g ai/ha, after 14 days; for pest or weed control at 140 g/ha: Chenopodium album, post-emergence, 336 h, read-out: % Control CHEAL. As for the experimental part:
(§1) Seeds or nutlets of the desired test plant species were planted in Sun Gro MetroMix® 306 planting mixture, which typically has a pH of 6.0 to 6.8 and an organic matter content of about 30 percent, in plastic pots with a surface area of 64 square centimeters. When required to ensure good germination and healthy plants, a fungicide treatment and/or other chemical or physical treatment was applied. The plants were grown for 7-21 days in a greenhouse with an approximate 15 hour photoperiod which was maintained at about 23-29° C. during the day and 22-28° C. during the night. Nutrients and water were added on a regular basis and supplemental lighting was provided with overhead metal halide 1000-Watt lamps as necessary. The plants were employed for testing when they reached the first or second true leaf stage. […] The concentrated stock solutions obtained were diluted with 20 mL of an aqueous mixture containing acetone, water, isopropyl alcohol, DMSO, Atplus 411F crop oil concentrate, and Triton® X-155 surfactant in a 48.5:39:10:1.5:1.0:0.02 v/v ratio to obtain spray solutions containing the highest application rates. […] Compound requirements are based upon a 12 mL application volume at a rate of 187 L/ha. Formulated compounds were applied to the plant material with an overhead Mandel track sprayer equipped with a […] nozzles calibrated to deliver 187 L/ha over an application area of 0.503 square meters at a spray height of 18 inches (43 cm) above the average plant canopy height. Control plants were sprayed in the same manner with the solvent blank. The treated plants and control plants were placed in a greenhouse as described above and watered by sub-irrigation to prevent wash-off of the test compounds. […] By applying the well-accepted probit analysis as described by J. Berkson in Journal of the American Statistical […], 48, 565 (1953) and by D.

For data set [2], the system named is redroot pigweed (Amaranthus retroflexus). The experiment in a line: Postemergence herbicidal activity. The data set is classed as in vivo. The note with it: post-emergent, 140 g ai/ha, after 14 days; for pest or weed control at 140 g/ha: Amaranthus retroflexus, post-emergence, 336 h, read-out: % Control AMARE. As for the experimental part: as §1
Data set [3] has as its system velvetleaf (Abutilon theophrasti). The experiment in a line: Postemergence herbicidal activity. The data set is classed as in vivo. The conditions noted are these: post-emergent, 140 g ai/ha, after 14 days; for pest or weed control at 140 g/ha: Abutilon theophrasti, post-emergence, 336 h, read-out: % Control ABUTH. As for the experimental part:
as §1

As for `Nc1cc(-c2ccc(Cl)c(C(F)F)c2F)nc(C(=O)O)c1Cl` [Compound 106, 4-Amino-3-chloro-6-(4-chloro-2-fluoro-3-difluoromethylphenyl)pyridine-2-carboxylic acid], the melting point was 182 to 183 °C (dec.). Moreover, the pest or weed control at 140 g/ha in data set [1] stood at 90%. Also, the pest or weed control at 140 g/ha in data set [2] is 100%. For the same compound, the pest or weed control at 140 g/ha in data set [3] was 90%.

Regarding `COC(=O)c1nc(-c2ccc(F)c(F)c2F)cc(N)c1Cl` [Compound 67, 4-Amino-3-chloro-6-(2,3,4-trifluorophenyl)pyridine-2-carboxylic acid, methyl ester], the melting point was in the range of 163 to 164 °C. Further, the pest or weed control at 140 g/ha in data set [1] was found to be 100%. Also, the pest or weed control at 140 g/ha in data set [2] is 100%. The pest or weed control at 140 g/ha in data set [3] came out at 100%.

For `Nc1cc(-c2ccc(Cl)c(C(F)F)c2Cl)nc(C(=O)O)c1Cl` [Compound 126, 4-Amino-3-chloro-6-(2,4-dichloro-3-difluoromethylphenyl)pyridine-2-carboxylic acid], the melting point is 182 to 183 °C (dec.). The pest or weed control at 140 g/ha in data set [1] came to 100%. In data set [2], the pest or weed control at 140 g/ha amounted to 100%. In addition, the pest or weed control at 140 g/ha in data set [3] was 90%.

As for `COC(=O)c1nc(-c2ccc(C(F)F)c(OC)c2Cl)cc(N)c1Cl` [Compound 79, 4-Amino-3-chloro-6-(2-chloro-4-difluoromethyl-3-methoxyphenyl)pyridine-2-carboxylic acid, methyl ester], the melting point fell in the range of 134 to 136 °C. Moreover, in data set [1], the pest or weed control at 140 g/ha was 100%. The pest or weed control at 140 g/ha in data set [2] stood at 90%. In data set [3], the pest or weed control at 140 g/ha stood at 95%.

The compound `CCOc1cc(-c2cc(N)c(Cl)c(C(=O)OC)n2)c(F)cc1Cl` [Compound 9, 4-Amino-3-chloro-6-(4-chloro-2-fluoro-5-ethoxyphenyl)pyridine-2-carboxylic acid methyl ester] registered a melting point of 115 to 116 °C. Besides, the pest or weed control at 140 g/ha in data set [1] was 100%. Also, the pest or weed control at 140 g/ha in data set [2] turned out to be 100%. Moreover, the pest or weed control at 140 g/ha in data set [3] came to 85%.

Turning to `CCC(F)c1c(Cl)ccc(-c2cc(N)c(Cl)c(C(=O)OC)n2)c1F` (centres unmarked) [Compound 130, 4-Amino-3-chloro-6-[4-chloro-2-fluoro-3-(1-fluoropropyl)phenyl]pyridine-2-carboxylic acid, methyl ester], the melting point was 165 to 167 °C (dec.). In addition, in data set [1], the pest or weed control at 140 g/ha was determined as 95%. For the same compound, in data set [2], the pest or weed control at 140 g/ha came to 95%. In addition, the pest or weed control at 140 g/ha in data set [3] is 80%.

`COC(=O)c1nc(-c2ccc(F)c(C)c2F)cc(NC(C)=O)c1Cl` [Compound 23, 4-acetylamino-3-chloro-6-(2,4-difluoro-3-methylphenyl)-pyridine-2-carboxylic acid methyl ester] returned a melting point of 152 to 153 °C.

Compound `COC(=O)c1nc(-c2cc(OC)c(Cl)cc2F)cc(NC(C)=O)c1Cl` [Compound 18, 4-acetylamino-3-chloro-6-(4-chloro-2-fluoro-5-methoxy-phenyl)pyridine-2-carboxylic acid methyl ester] displayed a melting point of 180 to 182 °C.

The compound `CCOc1c(F)ccc(-c2cc(N)c(Cl)c(C(=O)OC)n2)c1F` [Compound 80, 4-Amino-3-chloro-6-(2,4-difluoro-3-ethoxyphenyl)pyridine-2-carboxylic acid, methyl ester] yielded a melting point of 158 to 159 °C. For the same compound, the pest or weed control at 140 g/ha in data set [1] was determined as 95%. The pest or weed control at 140 g/ha in data set [2] is 100%. For the same compound, the pest or weed control at 140 g/ha in data set [3] stood at 100%.

For `COCCOc1c(Cl)ccc(-c2cc(N)c(Cl)c(C(=O)OC)n2)c1F` [Compound 11, 4-Amino-3-chloro-6-[4-chloro-2-fluoro-3-(methoxyethoxy)phenyl]pyridine-2-carboxylic acid methyl ester], the melting point was in the range of 89 to 90 °C. For the same compound, in data set [1], the pest or weed control at 140 g/ha was 80%. Moreover, in data set [2], the pest or weed control at 140 g/ha came out at 95%. Besides, the pest or weed control at 140 g/ha in data set [3] was determined as 90%.

Compound `COCOc1c(Cl)ccc(-c2cc(N)c(Cl)c(C(=O)OC)n2)c1F` [Compound 68, 4-Amino-3-chloro-6-(4-chloro-2-fluoro-3-methoxymethoxyphenyl)pyridine-2-carboxylic acid, methyl ester] had a melting point of 99 °C. In addition, the pest or weed control at 140 g/ha in data set [1] amounted to 100%. Also, the pest or weed control at 140 g/ha in data set [2] turned out to be 100%. Moreover, the pest or weed control at 140 g/ha in data set [3] came to 95%.

For `CCc1c(Cl)ccc(-c2cc(N)c(Cl)c(C(=O)O)n2)c1F` [Compound 128, 4-Amino-3-chloro-6-(4-chloro-3-ethyl-2-fluorophenyl)pyridine-2-carboxylic acid], the melting point was 192 to 193 °C (dec.).

Take `COC(=O)c1nc(-c2sc(F)c(CF)c2Cl)cc(N)c1Cl` [Compound 85, 4-amino-3-chloro-6-(4-chloro-2-fluoro-3-fluoromethylthiophenyl)pyridine-2-carboxylic acid methyl ester]: the melting point was 104 to 105 °C.

As to `COCOc1c(Cl)ccc(-c2cc(NC(C)=O)c(Cl)c(C(=O)OC)n2)c1F` [Compound 34, 4-Acetylamino-3-chloro-6-(4-chloro-2-fluoro-3-methoxymethoxy-phenyl)pyridine-2-carboxylic acid, methyl ester], the melting point fell in the range of 122 to 123 °C.

With `COCOc1c(Cl)ccc(-c2cc(N)c(Cl)c(C(=O)O)n2)c1F` [Compound 132, 4-Amino-3-chloro-6-(4-chloro-2-fluoro-3-methoxymethoxyphenyl)pyridine-2-carboxylic acid], the melting point is 159 °C (dec.).

With `CCCCOc1c(Cl)ccc(-c2cc(N)c(Cl)c(C(=O)O)n2)c1F` [Compound 124, 4-Amino-3-chloro-6-(4-chloro-3-butoxy-2-fluorophenyl)pyridine-2-carboxylic acid], the melting point is 157 to 158 °C (dec.).

`COC(=O)c1nc(-c2ccc(Cl)c(OC)c2F)cc(NC(C)=O)c1Cl` [Compound 20, 4-Acetylamino-3-chloro-6-(4-chloro-2-fluoro-3-methoxyphenyl)pyridine-2-carboxylic acid methyl ester] registered a melting point of 159 to 160 °C.

`COC(=O)c1nc(-c2ccc(Cl)c(C)c2Cl)cc(NC(C)=O)c1Cl` [Compound 24, 4-Acetylamino-3-chloro-6-(2,4-dichloro-3-methylphenyl)pyridine-2-carboxylic acid methyl ester]: the melting point lay within 172 to 174 °C.

Take `COC(=O)c1nc(-c2c(F)cc(Cl)c(OC)c2Cl)cc(N)c1Cl` [Compound 57, 4-Amino-3-chloro-6-(2,4-dichloro-6-fluoro-3-methoxyphenyl)pyridine-2-carboxylic acid, methyl ester]: the pest or weed control at 140 g/ha in data set [1], in data set [2] and in data set [3] was 100% each time.

Regarding `COC(=O)c1nc(-c2c(F)cc(Cl)c(C(F)F)c2F)cc(N)c1Cl` [Compound 54, 4-Amino-3-chloro-6-(4-chloro-3-difluoromethyl-2,6-difluorophenyl)pyridine-2-carboxylic acid, methyl ester], the pest or weed control at 140 g/ha in data set [1], in data set [2] and in data set [3] was 100% each time.

Consider `CCOc1cc(-c2cc(N)c(Cl)c(C(=O)O)n2)c(F)cc1Cl` [Compound 109, 4-Amino-3-chloro-6-(4-chloro-2-fluoro-5-ethoxyphenyl)pyridine-2-carboxylic acid], for which the melting point is 178 to 179 °C (dec.).

Regarding “4-Amino-3-chloro-(2-chloro-4-difluoromethyl-6-fluoro-3-methoxy-phenyl)pyridine-2-carboxylic acid, methyl ester [Compound 53]”, the “% Control CHEAL” value in data set [1] is recorded as 95%. Also, in data set [2], the “% Control AMARE” value is reported as 80%. Further, the “% Control ABUTH” value in data set [3] was found to be 70%.

In turn, `COC(=O)c1nc(-c2ccc(Cl)c(C)c2F)cc(NC(C)=O)c1Cl` [Compound 19, 4-Acetylamino-3-chloro-6-(4-chloro-2-fluoro-3-methylphenyl)pyridine-2-carboxylic acid methyl ester] yielded a melting point of 151 to 152 °C.

With `COC(=O)c1nc(-c2ccc(Cl)c(OC)c2Br)cc(N)c1Cl` [Compound 76, 4-Amino-6-(2-bromo-4-chloro-3-methoxyphenyl)-3-chloropyridine-2-carboxylic acid, methyl ester], the pest or weed control at 140 g/ha in data set [1], in data set [2] and in data set [3] was 100% throughout.

For orientation: melting point means the temperature, or range, at which the solid turns liquid.
